From ChEMBL document CHEMBL3045660, “Regioselective synthesis of fraxinellone-based hydrazone derivatives as insecticidal agents” (2012)

Tests used:
Assay type in all cases: functional
Mythimna separata [1] = experiment: Insecticidal activity against pre-third-instar larvae of Mythimna separata (Oriental armyworm) in compound treated fresh corn leaves assessed as corrected mortality at 1 mg/ml measured after 35 days by leaf-dipping method; conditions: 840 h
Mythimna separata [2] = experiment: Insecticidal activity against pre-third-instar larvae of Mythimna separata (Oriental armyworm) in compound treated fresh corn leaves assessed as corrected mortality at 1 mg/ml measured after 20 days by leaf-dipping method; conditions: 480 h
Mythimna separata [3] = experiment: Insecticidal activity against pre-third-instar larvae of Mythimna separata (Oriental armyworm) in compound treated fresh corn leaves assessed as corrected mortality at 1 mg/ml measured after 10 days by leaf-dipping method; conditions: 240 h

Work on `COc1ccc(C(=O)N/N=C/C2=C3C(=O)O[C@@H](c4ccoc4)[C@]3(C)CCC2)cc1` yielded a mortality at 1000 µg/mL (Mythimna separata [1]) of 50%, a mortality at 1000 µg/mL (Mythimna separata [2]) of 44.4% and a mortality at 1000 µg/mL (Mythimna separata [3]) of 37.9%.
In the case of `C[C@@]12CCCC(/C=N/NC(=O)c3ccc([N+](=O)[O-])cc3[N+](=O)[O-])=C1C(=O)O[C@H]2c1ccoc1`, the mortality at 1000 µg/mL (Mythimna separata [1]) is reported as 53.8%, the mortality at 1000 µg/mL (Mythimna separata [2]) is reported as 40.7% and the mortality at 1000 µg/mL (Mythimna separata [3]) is reported as 31%.
For `CC1=C2C(=O)O[C@@H](c3ccoc3)[C@]2(C)CC/C1=N\NC(=O)c1ccccc1`, the mortality at 1000 µg/mL (Mythimna separata [1]) was 76.9%, the mortality at 1000 µg/mL (Mythimna separata [2]) was 63% and the mortality at 1000 µg/mL (Mythimna separata [3]) was 58.6%.
Work on `CC1=C2C(=O)O[C@@H](c3ccoc3)[C@]2(C)CC/C1=N\NC(=O)c1ccc([N+](=O)[O-])cc1` yielded a mortality at 1000 µg/mL (Mythimna separata [1]) of 65.4%, a mortality at 1000 µg/mL (Mythimna separata [2]) of 63% and a mortality at 1000 µg/mL (Mythimna separata [3]) of 58.6%.
With `CC1=C2C(=O)O[C@@H](c3ccoc3)[C@]2(C)CC/C1=N\NC(=O)c1cccc(Cl)c1` the mortality at 1000 µg/mL (Mythimna separata [1]) was 69.2%, the mortality at 1000 µg/mL (Mythimna separata [2]) was 59.3% and the mortality at 1000 µg/mL (Mythimna separata [3]) was 58.6%.
`CC1=C2C(=O)O[C@@H](c3ccoc3)[C@]2(C)CC/C1=N\NC(=O)c1ccncc1` was tested, and the mortality at 1000 µg/mL (Mythimna separata [1]) was 50%, the mortality at 1000 µg/mL (Mythimna separata [2]) was 33.3% and the mortality at 1000 µg/mL (Mythimna separata [3]) was 24.1%.
`CC1=C2C(=O)O[C@@H](c3ccoc3)[C@]2(C)CC/C1=N\NC(=O)c1cccs1` showed a mortality at 1000 µg/mL (Mythimna separata [1]) of 38.5%, a mortality at 1000 µg/mL (Mythimna separata [2]) of 29.6% and a mortality at 1000 µg/mL (Mythimna separata [3]) of 20.7%.
In the case of `CC1=C2C(=O)O[C@@H](c3ccoc3)[C@]2(C)CC/C1=N\NC(=O)CC#N`, the mortality at 1000 µg/mL (Mythimna separata [1]) is reported as 61.5%, the mortality at 1000 µg/mL (Mythimna separata [2]) is reported as 33.3% and the mortality at 1000 µg/mL (Mythimna separata [3]) is reported as 34.5%.
Compound `CC1=C2C(=O)O[C@@H](c3ccoc3)[C@]2(C)CC/C1=N\Nc1ccccc1` has a mortality at 1000 µg/mL (Mythimna separata [1]) of 46.2%, a mortality at 1000 µg/mL (Mythimna separata [2]) of 22.2% and a mortality at 1000 µg/mL (Mythimna separata [3]) of 10.3%.
Work on `CC1=C2C(=O)O[C@@H](c3ccoc3)[C@]2(C)CC/C1=N\Nc1ccc([N+](=O)[O-])cc1` yielded a mortality at 1000 µg/mL (Mythimna separata [1]) of 53.8%, a mortality at 1000 µg/mL (Mythimna separata [2]) of 40.7% and a mortality at 1000 µg/mL (Mythimna separata [3]) of 34.5%.
`CC1=C2C(=O)O[C@@H](c3ccoc3)[C@]2(C)CC/C1=N\Nc1ccccc1[N+](=O)[O-]` showed a mortality at 1000 µg/mL (Mythimna separata [1]) of 46.2%, a mortality at 1000 µg/mL (Mythimna separata [2]) of 33.3% and a mortality at 1000 µg/mL (Mythimna separata [3]) of 24.1%.
Compound `CC1=C2C(=O)O[C@@H](c3ccoc3)[C@]2(C)CC/C1=N\Nc1c(F)c(F)cc(F)c1F` has a mortality at 1000 µg/mL (Mythimna separata [1]) of 50%, a mortality at 1000 µg/mL (Mythimna separata [2]) of 40.7% and a mortality at 1000 µg/mL (Mythimna separata [3]) of 27.6%.
Work on `C[C@@]12CCCC(/C=N/NC(=O)c3ccccc3)=C1C(=O)O[C@H]2c1ccoc1` yielded a mortality at 1000 µg/mL (Mythimna separata [1]) of 65.4%, a mortality at 1000 µg/mL (Mythimna separata [2]) of 55.6% and a mortality at 1000 µg/mL (Mythimna separata [3]) of 58.6%.
For `C[C@@]12CCCC(/C=N/NC(=O)c3ccc([N+](=O)[O-])cc3)=C1C(=O)O[C@H]2c1ccoc1`, the mortality at 1000 µg/mL (Mythimna separata [1]) was 61.5%, the mortality at 1000 µg/mL (Mythimna separata [2]) was 48.1% and the mortality at 1000 µg/mL (Mythimna separata [3]) was 37.9%.
`C[C@@]12CCCC(/C=N/NC(=O)c3cccc(Cl)c3)=C1C(=O)O[C@H]2c1ccoc1` was tested, and the mortality at 1000 µg/mL (Mythimna separata [1]) was 53.8%, the mortality at 1000 µg/mL (Mythimna separata [2]) was 40.7% and the mortality at 1000 µg/mL (Mythimna separata [3]) was 44.8%.
In the case of `C[C@@]12CCCC(/C=N/NC(=O)c3ccncc3)=C1C(=O)O[C@H]2c1ccoc1`, the mortality at 1000 µg/mL (Mythimna separata [1]) is reported as 73.1%, the mortality at 1000 µg/mL (Mythimna separata [2]) is reported as 66.7% and the mortality at 1000 µg/mL (Mythimna separata [3]) is reported as 55.2%.
`C[C@@]12CCCC(/C=N/NC(=O)c3cccs3)=C1C(=O)O[C@H]2c1ccoc1` was tested, and the mortality at 1000 µg/mL (Mythimna separata [1]) was 34.6%, the mortality at 1000 µg/mL (Mythimna separata [2]) was 29.6% and the mortality at 1000 µg/mL (Mythimna separata [3]) was 24.1%.
`C[C@@]12CCCC(/C=N/NC(=O)CC#N)=C1C(=O)O[C@H]2c1ccoc1` was tested, and the mortality at 1000 µg/mL (Mythimna separata [1]) was 69.2%, the mortality at 1000 µg/mL (Mythimna separata [2]) was 66.7% and the mortality at 1000 µg/mL (Mythimna separata [3]) was 55.2%.
Work on `C[C@@]12CCCC(/C=N/Nc3ccccc3)=C1C(=O)O[C@H]2c1ccoc1` yielded a mortality at 1000 µg/mL (Mythimna separata [1]) of 53.8%, a mortality at 1000 µg/mL (Mythimna separata [2]) of 44.4% and a mortality at 1000 µg/mL (Mythimna separata [3]) of 27.6%.
`C[C@@]12CCCC(/C=N/Nc3ccc([N+](=O)[O-])cc3)=C1C(=O)O[C@H]2c1ccoc1` gave a mortality at 1000 µg/mL (Mythimna separata [1]) of 38.5%, a mortality at 1000 µg/mL (Mythimna separata [2]) of 14.8% and a mortality at 1000 µg/mL (Mythimna separata [3]) of 20.7%.
`C[C@@]12CCCC(/C=N/Nc3ccccc3[N+](=O)[O-])=C1C(=O)O[C@H]2c1ccoc1` showed a mortality at 1000 µg/mL (Mythimna separata [1]) of 50%, a mortality at 1000 µg/mL (Mythimna separata [2]) of 37% and a mortality at 1000 µg/mL (Mythimna separata [3]) of 13.8%.
Compound `C[C@@]12CCCC(/C=N/Nc3c(F)c(F)cc(F)c3F)=C1C(=O)O[C@H]2c1ccoc1` has a mortality at 1000 µg/mL (Mythimna separata [1]) of 61.5%, a mortality at 1000 µg/mL (Mythimna separata [2]) of 40.7% and a mortality at 1000 µg/mL (Mythimna separata [3]) of 37.9%.
With `Cc1cccc(C(=O)N/N=C/C2=C3C(=O)O[C@@H](c4ccoc4)[C@]3(C)CCC2)c1` the mortality at 1000 µg/mL (Mythimna separata [1]) was 53.8%, the mortality at 1000 µg/mL (Mythimna separata [2]) was 44.4% and the mortality at 1000 µg/mL (Mythimna separata [3]) was 41.4%.
In the case of `C[C@@]12CCCC(C=O)=C1C(=O)O[C@H]2c1ccoc1` [3-FORMYLFRAXINELLONE], the mortality at 1000 µg/mL (Mythimna separata [1]) is reported as 34.6%, the mortality at 1000 µg/mL (Mythimna separata [2]) is reported as 25.9% and the mortality at 1000 µg/mL (Mythimna separata [3]) is reported as 17.2%.
`CC1=C2C(=O)O[C@@H](c3ccoc3)[C@]2(C)CCC1` [FRAXINELLONE] showed a mortality at 1000 µg/mL (Mythimna separata [1]) of 53.8%, a mortality at 1000 µg/mL (Mythimna separata [2]) of 40.7% and a mortality at 1000 µg/mL (Mythimna separata [3]) of 41.4%.
`CC1=C2C(=O)O[C@@H](c3ccoc3)[C@]2(C)CCC1=O` [FRAXINELLONONE] was tested, and the mortality at 1000 µg/mL (Mythimna separata [1]) was 57.7%, the mortality at 1000 µg/mL (Mythimna separata [2]) was 48.1% and the mortality at 1000 µg/mL (Mythimna separata [3]) was 48.3%.
For `CC(=O)O[C@@H]1C[C@H](O)[C@@]23CO[C@@H](O)[C@]1(C)[C@@H]2C[C@@H](O)[C@]1(C)[C@@H]3C(=O)[C@H](OC(C)=O)[C@@]2(C)[C@H](c3ccoc3)C[C@H]3O[C@]321` [TOOSENDANIN], the mortality at 1000 µg/mL (Mythimna separata [1]) was 53.8%, the mortality at 1000 µg/mL (Mythimna separata [2]) was 33.3% and the mortality at 1000 µg/mL (Mythimna separata [3]) was 24.1%.
